Converted amounts (≈) assume the structure as drawn. Where two headings read alike, the source gives them in different places.
Columns and labels:
CK2A1 = target: T1, CK2A1 (Homo sapiens, UniProt P68400); assay: Radiometric kinase assay (Eurofins), CK2A1; format: biochemical; conditions: read-out: CK2A1 RAD IC50
T1 construct: purchased Eurofins
Text: FIGS. 4A-4F characterize flavones for in vitro and in-cell CK2 inhibition. […] Representative of two independent experiments. […] Nonlinear fit was used to calculate IC50. […] Nonlinear fit was used to calculate IC50. […] Nonlinear fit was used to calculate IC50. […] Normalized to DMSO, data are representative of three independent experiments.
(§1) • ^1Radiometric kinase assay from Eurofins. Performed in astrocytes with a Promega Lumit IL-6 kit.

CK2A2 = target: T2, CK2A2 (Homo sapiens, UniProt P19784); assay: Radiometric kinase assay (Eurofins), CK2A2; format: biochemical; conditions: read-out: CK2A2 RAD IC50
T2 construct: purchased Eurofins
Text: as §1

IL-6 secretion = IL-6 secretion assay in astrocytes (Promega Lumit IL-6 kit); format: cell-based, human; conditions: Homo sapiens, Astrocyte, read-out: IL6-Inhib.
Experimental: IL-6 secretion assay. HCAs were plated at 20,000 cells per well in white clear bottom 96-well plates. Two to three days later, media was removed and replaced with media containing 10 ng/mL IL1B and compound dilution series. Five hours later, plates were processed using the Lumit IL-6 Assay Kit (Promega W6030) according to the manufacturer's instructions.
• ^1Radiometric kinase assay from Eurofins. Performed in astrocytes with a Promega Lumit IL-6 kit. A series of halogenated flavones was generated and assayed (Table 3).

Aqueous solubility = format: physicochemical; conditions: read-out: Aqueous Solubility
[1] = aqueous medium (not further specified), Table 8
[2] = aqueous (not further specified), Table 3

T1 sequence (P68400 whole entry): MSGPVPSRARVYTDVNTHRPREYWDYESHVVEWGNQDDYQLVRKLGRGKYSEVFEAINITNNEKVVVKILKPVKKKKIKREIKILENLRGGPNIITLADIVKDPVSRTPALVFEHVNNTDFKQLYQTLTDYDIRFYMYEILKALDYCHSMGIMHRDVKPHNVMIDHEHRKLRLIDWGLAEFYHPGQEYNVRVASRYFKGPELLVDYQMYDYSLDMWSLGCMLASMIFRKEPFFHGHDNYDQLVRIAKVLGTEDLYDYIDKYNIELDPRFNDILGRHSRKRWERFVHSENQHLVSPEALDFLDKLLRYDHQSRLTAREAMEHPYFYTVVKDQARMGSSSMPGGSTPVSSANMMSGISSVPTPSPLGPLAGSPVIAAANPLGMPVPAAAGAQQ
T2 sequence (P19784 whole entry): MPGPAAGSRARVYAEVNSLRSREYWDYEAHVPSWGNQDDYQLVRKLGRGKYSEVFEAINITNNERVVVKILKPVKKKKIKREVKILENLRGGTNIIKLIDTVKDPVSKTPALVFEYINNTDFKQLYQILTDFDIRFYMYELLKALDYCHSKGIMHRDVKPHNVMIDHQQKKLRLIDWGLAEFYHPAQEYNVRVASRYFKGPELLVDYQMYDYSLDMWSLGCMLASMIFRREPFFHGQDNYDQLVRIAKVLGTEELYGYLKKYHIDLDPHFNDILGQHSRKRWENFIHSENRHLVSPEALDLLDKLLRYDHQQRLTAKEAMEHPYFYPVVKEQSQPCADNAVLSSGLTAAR

Compound: O=c1[nH]c(-c2cc(Cl)c(O)c(Cl)c2)nc2c(Br)cc(Br)cc12 [JKT.773B]
- IC50 (CK2A1; Table 8, quinazolinones): 0.243 µM
- IC50 (CK2A2; Table 8, quinazolinones): 0.276 µM
- IC50 (IL-6 secretion; Table 8): > 10 µM
- solubility (Aqueous solubility; [1]): 24.1 µM (≈ 11.2 µg/mL)

Compound: O=c1[nH]c(-c2cc(F)c(O)c(F)c2)nc2c(Br)cc(Br)cc12 [JKT.774A]
- IC50 (CK2A1; Table 8, quinazolinones): 0.818 µM
- IC50 (CK2A2; Table 8, quinazolinones): 1.04 µM
- IC50 (IL-6 secretion; Table 8): > 10 µM
- solubility (Aqueous solubility; [1]): 152 µM (≈ 65.5 µg/mL)

Compound: O=c1[nH]c(-c2ccc(O)c(C(F)(F)F)c2)nc2c(Br)cc(Br)cc12 [JKT.775A]
- IC50 (CK2A1; Table 8, quinazolinones): 0.37 µM
- IC50 (CK2A2; Table 8, quinazolinones): 2.48 µM
- IC50 (IL-6 secretion; Table 8): > 10 µM
- solubility (Aqueous solubility; [1]): 17.9 µM (≈ 8.31 µg/mL)

Compound: O=c1cc(-c2ccc(O)c(Br)c2)oc2c(Cl)cccc12 [JKT.777A]
- IC50 (CK2A1; Table 3, halogenated flavones): 0.02 µM
- IC50 (CK2A2; Table 3, halogenated flavones): 0.021 µM
- IC50 (IL-6 secretion; Table 3): 10.3 µM
- solubility (Aqueous solubility; [2]): 14 µM (≈ 4.92 µg/mL)

Compound: O=c1cc(-c2ccc(O)c(Br)c2)oc2ccc(Cl)cc12 [JKT.778A]
- IC50 (CK2A1; Table 3, halogenated flavones): 0.115 µM
- IC50 (CK2A2; Table 3, halogenated flavones): 0.078 µM
- IC50 (IL-6 secretion; Table 3): 7.4 µM
- solubility (Aqueous solubility; [2]): 15.1 µM (≈ 5.31 µg/mL)

Compound: COc1ccc2c(=O)cc(-c3ccc(O)c(Br)c3)oc2c1Br [JKT.780A]
- IC50 (CK2A1; Table 3, halogenated flavones): 0.009 µM
- IC50 (CK2A2; Table 3, halogenated flavones): 0.025 µM
- IC50 (IL-6 secretion; Table 3): > 10 µM
- solubility (Aqueous solubility; [2]): < 0.01 µM

Compound: COc1ccc2c(=O)cc(-c3ccc(O)c(C(F)(F)F)c3)oc2c1Br [JKT.786A]
- IC50 (CK2A1; Table 3, halogenated flavones): 2.48 µM
- IC50 (CK2A2; Table 3, halogenated flavones): 1.71 µM
- IC50 (IL-6 secretion; Table 3): > 10 µM
- solubility (Aqueous solubility; [2]): < 0.01 µM

Compound: COc1ccc2c(=O)cc(-c3ccc(O)c(Cl)c3)oc2c1Br [JKT.787A]
- IC50 (CK2A1; Table 3, halogenated flavones): 0.024 µM
- IC50 (CK2A2; Table 3, halogenated flavones): 0.016 µM
- IC50 (IL-6 secretion; Table 3): 7.7 µM
- solubility (Aqueous solubility; [2]): < 0.01 µM

Compound: O=c1cc(-c2ccc(O)c(Cl)n2)oc2c(Br)cc(Br)cc12 [JKT.801A]
- IC50 (CK2A1; Table 4): 0.024 µM
- IC50 (CK2A2; Table 4): 0.021 µM
- IC50 (IL-6 secretion; Table 4): 4.4 µM
- solubility (Aqueous solubility; Table 4): 155 µM (≈ 66.8 µg/mL)

Compound: O=c1[nH]c(-c2ccc(O)c(Br)c2)nc2c(Cl)cc(Cl)cc12 [JKT.805A]
- IC50 (CK2A1; Table 8, quinazolinones): 2.89 µM
- IC50 (CK2A2; Table 8, quinazolinones): 2.83 µM
- IC50 (IL-6 secretion; Table 8): > 10 µM
- solubility (Aqueous solubility; [1]): 4.2 µM (≈ 1.62 µg/mL)

Compound: O=c1[nH]c(-c2ccc(O)c(Cl)c2)nc2c(Cl)cc(Cl)cc12 [JKT.806A]
- IC50 (CK2A1; Table 8, quinazolinones): > 5 µM
- IC50 (CK2A2; Table 8, quinazolinones): > 5 µM
- IC50 (IL-6 secretion; Table 8): > 10 µM
- solubility (Aqueous solubility; [1]): 17 µM (≈ 5.81 µg/mL)

Compound: O=c1[nH]c(-c2cc(Cl)c(O)c(Cl)c2)nc2c(Cl)cc(Cl)cc12 [JKT.807A]
- IC50 (CK2A1; Table 8, quinazolinones): 0.91 µM
- IC50 (CK2A2; Table 8, quinazolinones): > 5 µM
- IC50 (IL-6 secretion; Table 8): > 10 µM
- solubility (Aqueous solubility; [1]): 126 µM (≈ 47.3 µg/mL)

Compound: O=c1[nH]c(-c2cc(F)c(O)c(F)c2)nc2c(Cl)cc(Cl)cc12 [JKT.808A]
- IC50 (CK2A1; Table 8, quinazolinones): 2.98 µM
- IC50 (CK2A2; Table 8, quinazolinones): 1.62 µM
- IC50 (IL-6 secretion; Table 8): > 10 µM
- solubility (Aqueous solubility; [1]): 189 µM (≈ 64.7 µg/mL)

Compound: O=c1[nH]c(-c2ccc(O)c(C(F)(F)F)c2)nc2c(Cl)cc(Cl)cc12 [JKT.809A]
- IC50 (CK2A1; Table 8, quinazolinones): 0.082 µM
- IC50 (CK2A2; Table 8, quinazolinones): > 5 µM
- IC50 (IL-6 secretion; Table 8): > 10 µM
- solubility (Aqueous solubility; [1]): < 0.01 µM

Compound: COc1cc(-c2nc3c(Cl)cc(Cl)cc3c(=O)[nH]2)ccc1O [JKT.810A]
- IC50 (CK2A1; Table 8, quinazolinones): > 5 µM
- IC50 (CK2A2; Table 8, quinazolinones): > 5 µM
- IC50 (IL-6 secretion; Table 8): > 10 µM
- solubility (Aqueous solubility; [1]): < 0.01 µM

Compound: COc1c(Br)cc2c(c1Br)O/C(=C\c1ccc(O)c(I)c1)C2=O [JKT.813A]
- IC50 (CK2A1; Table 11, aurones): 0.135 µM
- IC50 (CK2A2; Table 11, aurones): 0.193 µM
- IC50 (IL-6 secretion; Table 11): 1.1 µM
- solubility (Aqueous solubility; Table 11): < 0.01 µM

Compound: COc1ccc2c(c1Br)O/C(=C\c1ccc(O)c(I)c1)C2=O [JKT.814A]
- IC50 (CK2A1; Table 11, aurones): 0.131 µM
- IC50 (CK2A2; Table 11, aurones): 0.123 µM
- IC50 (IL-6 secretion; Table 11): 4.3 µM
- solubility (Aqueous solubility; Table 11): < 0.01 µM

Compound: COc1ccc2c(c1Br)O/C(=C\c1ccc(O)c(Br)c1)C2=O [JKT.815A]
- IC50 (CK2A1; Table 11, aurones): 0.047 µM
- IC50 (CK2A2; Table 11, aurones): 0.026 µM
- IC50 (IL-6 secretion; Table 11): 4.6 µM
- solubility (Aqueous solubility; Table 11): < 0.01 µM

— patent US20260199350A1, “FLAVONES, QUINOLINONES, QUINAZOLINONES, AND AURONES, AND USES IN CK2-MEDIATED DISEASES” (Salk Institute for Biological Studies, priority 2022, published 2026)
